Laboratory results reported in US8648066B2 (Exelixis, Inc., priority 2009, dated 2014).

Biological target: mTOR/GbL/Raptor (mTORC1) (Homo sapiens, UniProt P42345)
Assay: mTOR/GbL/Raptor (mTORC1) ELISA assay
Format: biochemical
Conditions: phosphorylation of 4E-BP1; 0.2 nM mTORC1, 10 μM ATP; read-out: IC50 in this assay (mTORC1 ELISA)
Summary of the method: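 ELISA read-out: phospho-4E-BP1 captured on Ni-chelate plates and detected with anti-phospho antibody plus HRP-anti-IgG luminescence. The kinase step ran 120 min at ambient temperature with 0.2 nM human mTORC1, 10 µM ATP, 50 nM His-4E-BP1, 10 mM MnCl2, pH 7.2 HEPES.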

SMILES | IC50
CN1CCC[C@H](CNS(=O)(=O)c2cc(-c3ccc4c(c3)CN(c3ncnc5c3CC(C)(C)CC5)CCO4)cnc2N)C1 [Example 393, 2-amino-5-[4-(6,6-dimethyl-5,6,7,8-tetrahydroquinazolin-4-yl)-2,3,4,5-tetrahydro-1,4-benzoxazepin-7-yl]-N-{[(3S)-1-methylpiperidin-3-yl]methyl}pyridine-3-sulfonamide] | 50 to 250 nM
COCCOc1cc(-c2ccc3c(c2)CN(c2nc(CN(C)C)nc4c2CC(C)(C)CC4)CCO3)ccc1OC [Example 648, 1-(6,6-dimethyl-4-{7-[4-(methyloxy)-3-{[2-(methyloxy)ethyl]oxy}phenyl]-2,3-dihydro-1,4-benzoxazepin-4(5H)-yl}-5,6,7,8-tetrahydroquinazolin-2-yl)-N,N-dimethylmethanamine] | 250 to 1000 nM
CN(C)Cc1nc2c(c(N3CCOc4ccc(-c5ccc6[nH]c(CF)nc6c5)cc4C3)n1)CC(C)(C)CC2 [Example 322] | 10 to 50 nM
CC[C@H]1CCc2c(ncnc2N2CCOc3ccc(-c4cnc(N)c(S(=O)(=O)NCC(C)(C)N)c4)cc3C2)C1 [Example 407, 2-amino-N-(2-amino-2-methylpropyl)-5-{4-[(7S)-7-ethyl-5,6,7,8-tetrahydroquinazolin-4-yl]-2,3,4,5-tetrahydro-1,4-benzoxazepin-7-yl]pyridine-3-sulfonamide] | 10 to 50 nM
CC(C)c1nc2ccc(-c3ccc4c(c3)CN(c3ccnc5ccccc35)CCO4)cc2[nH]1 [Example 203, 7-[2-(1-methylethyl)-1H-benzimidazol-6-yl]-4-quinolin-4-yl-2,3,4,5-tetrahydro-1,4-benzoxazepine] | 1000 to 2000 nM
Cc1nc2ccc(-c3ccc4c(c3)CN(c3nc(-c5ccccn5)nc5c3CC(C)(C)CC5)CCO4)cc2[nH]1 [Example 472, 4-(6,6-dimethyl-2-pyridin-2-yl-5,6,7,8-tetrahydroquinazolin-4-yl)-7-(2-methyl-1H-benzimidazol-6-yl)-2,3,4,5-tetrahydro-1,4-benzoxazepine] | 50 to 250 nM
COc1ccc2c(N3CCOc4ccc(-c5cnc(N)s5)cc4C3)nc(C)nc2c1 [Example 292, 5-{4-[2-methyl-7-(methyloxy)quinazolin-4-yl]-2,3,4,5-tetrahydro-1,4-benzoxazepin-7-yl}-1,3-thiazol-2-amine] | 50 to 250 nM
Cc1nc2ncc(-c3ccc4c(c3)CN(c3nc(CN5CC[C@@H](F)C5)nc5c3CC(C)(C)CC5)CCO4)cc2[nH]1 [Example 462] | 10 to 50 nM
COc1ccc2c(N3CCOc4ccc(-c5ccc(-c6c[nH]cn6)cc5)cc4C3)nc(C)nc2c1 [Example 570, 7-[4-(1H-imidazol-4-yl)phenyl]-4-[2-methyl-7-(methyloxy)quinazolin-4-yl]-2,3,4,5-tetrahydro-1,4-benzoxazepine] | 50 to 250 nM
COc1c(OCc2ccccc2)ccc2c(N3CCOc4ccc(-c5ccc6nc(C)[nH]c6c5)cc4C3)ncnc12 [Example 39, 7-(2-methyl-1H-benzimidazol-6-yl)-4-{8-(methyloxy)-7-[(phenylmethyl)oxy]quinazolin-4-yl}-2,3,4,5-tetrahydro-1,4-benzoxazepine] | 50 to 250 nM
COC(=O)Nc1nc2ncc(-c3ccc4c(c3)CN(c3ncnc5c3CC(C)(C)C=C5)CCO4)cc2[nH]1 [Example 583, methyl {6-[4-(6,6-dimethyl-5,6-dihydroquinazolin-4-yl)-2,3,4,5-tetrahydro-1,4-benzoxazepin-7-yl]-1H-imidazo[4,5-b]pyridin-2-yl}carbamate] | ≤ 10 nM
COC(=O)Nc1nc2ncc(-c3ccc4c(c3)CN(c3ccnc5cc(OC)c(OC)cc35)CCO4)cc2[nH]1 [Example 210, methyl (6-{4-[6,7-bis(methyloxy)quinolin-4-yl]-2,3,4,5-tetrahydro-1,4-benzoxazepin-7-yl}-1H-imidazo[4,5-b]pyridin-2-yl)carbamate] | 250 to 1000 nM
CC[C@H]1CCc2c(nc(C)nc2N2CCOc3ccc(-c4cnc(N)c(S(=O)(=O)N5CCC(C)(N)C5)c4)cc3C2)C1 (stereo partly drawn) [Example 441, 3-[(3-amino-3-methylpyrrolidin-1-yl)sulfonyl]-5-{4-[(7S)-7-ethyl-2-methyl-5,6,7,8-tetrahydroquinazolin-4-yl]-2,3,4,5-tetrahydro-1,4-benzoxazepin-7-yl}pyridin-2-amine] | 10 to 50 nM
CCc1c(C)ncnc1N1CCOc2ccc(-c3ccc4nc(C)[nH]c4c3)cc2C1 [Example 64, 4-(5-ethyl-6-methylpyrimidin-4-yl)-7-(2-methyl-1H-benzimidazol-6-yl)-2,3,4,5-tetrahydro-1,4-benzoxazepine] | 50 to 250 nM
CCOc1ccc2ncnc(N3CCOc4ccc(-c5ccc6nc(C)[nH]c6c5)cc4C3)c2c1 [Example 159, 4-[6-(ethyloxy)quinazolin-4-yl]-7-(2-methyl-1H-benzimidazol-6-yl)-2,3,4,5-tetrahydro-1,4-benzoxazepine] | 50 to 250 nM
CC1(C)CCc2ncnc(N3CCOc4ccc(-c5ccc6nc(NCCF)[nH]c6c5)cc4C3)c2C1 [Example 215, 6-[4-(6,6-dimethyl-5,6,7,8-tetrahydroquinazolin-4-yl)-2,3,4,5-tetrahydro-1,4-benzoxazepin-7-yl]-N-(2-fluoroethyl)-1H-benzimidazol-2-amine] | ≤ 10 nM

SMILES | IC50
Cc1nc(CN(C)C)nc(N2CCOc3ccc(-c4cnc5sc(N)nc5c4)cc3C2)c1-c1ccccc1 [Example 682, 6-(4-{2-[(dimethylamino)methyl]-6-methyl-5-phenylpyrimidin-4-yl}-2,3,4,5-tetrahydro-1,4-benzoxazepin-7-yl)[1,3]thiazolo[5,4-b]pyridin-2-amine] | 10 to 50 nM
Cc1nc2cc(-c3ccc4c(c3)CN(c3nc(CN(C)C)nc(C)c3Br)CCO4)ccc2[nH]1 [Example 666, 1-{5-bromo-4-methyl-6-[7-(2-methyl-1H-benzimidazol-5-yl)-2,3-dihydro-1,4-benzoxazepin-4(5H)-yl]pyrimidin-2-yl}-N,N-dimethylmethanamine] | ≥ 2000 nM
Cc1nc2ncc(-c3ccc4c(c3)CN(c3ncnc5c3CC[C@@H](C)C5)CCO4)cc2[nH]1 [Example 559, 7-(2-methyl-1H-imidazo[4,5-b]pyridin-6-yl)-4-[(7R)-7-methyl-5,6,7,8-tetrahydroquinazolin-4-yl]-2,3,4,5-tetrahydro-1,4-benzoxazepine] | 10 to 50 nM
CC[C@H]1CCc2c(ncnc2N2CCOc3ccc(-c4cnc5nc(C)[nH]c5c4)cc3C2)C1 [Example 488, 4-[(7S)-7-ethyl-5,6,7,8-tetrahydroquinazolin-4-yl]-7-(2-methyl-1H-imidazo[4,5-b]pyridin-6-yl)-2,3,4,5-tetrahydro-1,4-benzoxazepine] | ≤ 10 nM
CCNc1nc2ncc(-c3ccc4c(c3)CN(c3nc(C)nc5c3CC(C)(C)CC5)CCO4)cc2[nH]1 [Example 290, N-ethyl-6-[4-(2,6,6-trimethyl-5,6,7,8-tetrahydroquinazolin-4-yl)-2,3,4,5-tetrahydro-1,4-benzoxazepin-7-yl]-1H-imidazo[4,5-b]pyridin-2-amine] | ≤ 10 nM
COc1ccc2c(N3CCOc4ccc(-c5ccc(-c6ncc[nH]6)cc5)cc4C3)nc(C)nc2c1 [Example 256, 7-[4-(1H-imidazol-2-yl)phenyl]-4-[2-methyl-7-(methyloxy)quinazolin-4-yl]-2,3,4,5-tetrahydro-1,4-benzoxazepine] | 10 to 50 nM
CC1=Cc2ncnc(N3CCOc4ccc(-c5cnc(N)c(S(=O)(=O)N6CC[C@@H](N)C6)c5)cc4C3)c2CC1(C)C [Example 447, 3-{[(3R)-3-aminopyrrolidin-1-yl]sulfonyl}-5-[4-(6,6,7-trimethyl-5,6-dihydroquinazolin-4-yl)-2,3,4,5-tetrahydro-1,4-benzoxazepin-7-yl]pyridin-2-amine] | ≤ 10 nM
CCc1ncnc(N2CCOc3ccc(-c4ccc5nc(C)[nH]c5c4)cc3C2)c1CC [Example 58, 4-(5,6-diethylpyrimidin-4-yl)-7-(2-methyl-1H-benzimidazol-6-yl)-2,3,4,5-tetrahydro-1,4-benzoxazepine] | 50 to 250 nM
Cc1nc2cc(-c3ccc4c(c3)CN(c3nc(CN5CCCC5)nc(C)c3C(C)C)CCO4)ccc2[nH]1 [Example 675] | 50 to 250 nM
COc1ccc2c(N3CCOc4ccc(-c5cnc(N)c(S(=O)(=O)C[C@@H](C)CO)c5)cc4C3)ncnc2c1 [Example 303, (2S)-3-[(2-amino-5-{4-[7-(methyloxy)quinazolin-4-yl]-2,3,4,5-tetrahydro-1,4-benzoxazepin-7-yl}pyridin-3-yl)sulfonyl]-2-methylpropan-1-ol] | 250 to 1000 nM
COc1ccc2c(N3CCOc4ccc(-c5ccc(-c6nc7ccccc7[nH]6)cc5)cc4C3)nc(C)nc2c1 [Example 240, 7-[4-(1H-benzimidazol-2-yl)phenyl]-4-[2-methyl-7-(methyloxy)quinoazlin-4-yl]-2,3,4,5-tetrahydro-1,4-benzoxazepine] | ≥ 2000 nM
Cc1ncnc(N2CCOc3ccc(-c4ccc5nc(N)cn5c4)cc3C2)c1Cc1ccc(F)cc1 [Example 145, 6-(4-{5-[(4-fluorophenyl)methyl]-6-methylpyrimidin-4-yl}-2,3,4,5-tetrahydro-1,4-benzoxazepin-7-yl)imidazo[1,2-a]pyridin-2-amine] | 10 to 50 nM
COc1ccc2c(N3CCOc4ccc(-c5ccc6nc[nH]c6c5)cc4C3)nc(C)nc2c1 [Example 280, 7-(1H-benzimidazol-6-yl)-4-[2-methyl-7-(methyloxy)quinoazolin-4-yl]-2,3,4,5-tetrahydro-1,4-benzoxazepine] | 250 to 1000 nM
CC1(C)CCc2ncnc(N3CCOc4ccc(-c5cnc(O)c(S(=O)(=O)N6CC[C@H](N)C6)c5)cc4C3)c2C1 [Example 453, 3-{[(3S)-3-aminopyrrolidin-1-yl]sulfonyl}-5-[4-(6,6-dimethyl-5,6,7,8-tetrahydroquinazolin-4-yl)-2,3,4,5-tetrahydro-1,4-benzoxazepin-7-yl]pyridin-2-ol] | 50 to 250 nM
Cc1nc2c(c(N3CCOc4ccc(-c5cnc6nc(C)[nH]c6c5)cc4C3)n1)CC(C)CC2 (stereo not shown) [Example 460, 4-(2,6-dimethyl-5,6,7,8-tetrahydroquinazolin-4-yl)-7-(2-methyl-1H-imidazo[4,5-b]pyridin-6-yl)-2,3,4,5-tetrahydro-1,4-benzoxazepine] | 10 to 50 nM
